{"source": "patent US20090131309A1", "about": "“ICA512 COUPLES INSULIN SECRETION AND GENE EXPRESSION IN BETA-CELLS” (Technische Universität Dresden Medizinizche Fakultät Carl …, priority 2004, published 2009)", "key": {"μ-calpain": {"molecular_target": "T1, μ-calpain (Homo sapiens, UniProt P07384)", "T1 sequence (P07384 1-714)": "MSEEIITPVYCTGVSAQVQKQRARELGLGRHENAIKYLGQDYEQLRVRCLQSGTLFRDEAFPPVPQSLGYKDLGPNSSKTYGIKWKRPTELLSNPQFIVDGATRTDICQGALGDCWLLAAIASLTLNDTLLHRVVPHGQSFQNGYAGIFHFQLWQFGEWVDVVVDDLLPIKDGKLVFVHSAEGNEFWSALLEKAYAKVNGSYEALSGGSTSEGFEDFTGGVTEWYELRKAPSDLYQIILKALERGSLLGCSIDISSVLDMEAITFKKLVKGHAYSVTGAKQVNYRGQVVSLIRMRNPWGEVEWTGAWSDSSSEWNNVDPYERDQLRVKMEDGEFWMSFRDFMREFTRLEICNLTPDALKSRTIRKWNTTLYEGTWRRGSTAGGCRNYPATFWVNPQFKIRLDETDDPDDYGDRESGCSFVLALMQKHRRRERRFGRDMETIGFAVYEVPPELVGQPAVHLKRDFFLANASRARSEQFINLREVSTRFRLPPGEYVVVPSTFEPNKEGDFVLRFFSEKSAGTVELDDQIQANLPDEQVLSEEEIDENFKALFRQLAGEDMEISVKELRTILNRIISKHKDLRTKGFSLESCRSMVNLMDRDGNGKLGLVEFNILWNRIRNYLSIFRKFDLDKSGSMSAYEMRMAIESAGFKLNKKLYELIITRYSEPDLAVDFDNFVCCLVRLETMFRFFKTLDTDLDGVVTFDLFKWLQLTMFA", "T1 sequence (P04632 1-268 partner)": "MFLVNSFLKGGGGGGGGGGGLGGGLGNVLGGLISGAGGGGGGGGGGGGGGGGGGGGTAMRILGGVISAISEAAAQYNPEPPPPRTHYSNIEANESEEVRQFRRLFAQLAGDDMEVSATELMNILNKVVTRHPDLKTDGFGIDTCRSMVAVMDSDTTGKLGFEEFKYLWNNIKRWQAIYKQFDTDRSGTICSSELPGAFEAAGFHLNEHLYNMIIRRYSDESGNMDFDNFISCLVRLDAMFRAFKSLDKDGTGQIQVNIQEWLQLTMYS", "type": "biochemical", "settings": "bacterially expressed ICA512 (601-979), 50 μM Ca2+, 30 μM inhibitor", "protocol": "In-vitro μ-calpain cleavage. 3 μg bacterially expressed His-ICA512 cytoplasmic domain (residues 601-979) (Ort et al., 2001) were incubated in 20 μl buffer (20 mM Tris-HCl pH 7.5, 50 μM CaCl2, 1 mM L-cysteine) at room temperature with or without 150 ng μ-calpain (Calbiochem) and 30 μM calpeptin or MG-132 for 1, 5, 15 or 45 minutes. The reactions were stopped by addition of an equal volume of 2×SDS sample buffer. Following SDS-PAGE, proteins were stained with Coomassie Blue (Bio-Rad)."}, "ICA512-TMF": {"test_system": "ICA512-TMF", "test": "Stimulus-induced decrease of ICA512-TMF in rat pancreatic islets (western blot)", "type": "cell-based", "settings": "purified rat pancreatic islets; with or without 60 μM calpeptin", "protocol": "Islet isolation and cell culture. Pancreatic islets were isolated from female Wistar rats by collagenase digestion, purified by density gradient centrifugation, and cultured (400/60 mm culture dish) as described previously (26). INS-1 cells were grown as described (27). Cell extracts and western blotting. Wild type and transfected INS-1 cells and rat pancreatic islets (350-450) were pre-incubated for 60 minutes in resting buffer containing 0 mM glucose and 5 mM KCl and then incubated for various times in fresh resting or stimulating buffer including 25 mM glucose and 55 mM KCl, as previously described (7). […] Next, the cells were washed with ice cold PBS, and extracted in lysis buffer (10 mM Tris-HCl at pH 8.0, 140 mM NaCl, 1% Triton X-100, 1 mM EDTA, 1 mM PMSF, and 1% protease inhibitor cocktail (Sigma, St. Louis, Mo.) at 4° C. Cytosolic and nuclear extracts were prepared using the NE-PER Nuclear and Cytoplasmic Extraction Reagents (Pierce, Rockford, Ill.) in accordance with the manufacturer's instructions. Protein concentration was measured using the Bio-Rad Protein Assay Reagent (Bio-Rad, Hercules, Calif.). Equivalent amount of protein was separated by 8-10% SDS-PAGE, except for nuclear extracts, in which case half of the protein were loaded compared to the corresponding cytosolic extracts. […] Quantitation of protein signals was performed with the Image Gauge v3.45 software (Fuji)."}, "Insulin mRNA": {"test_system": "Insulin mRNA", "test": "Insulin mRNA levels by real-time PCR in INS-1 cells", "type": "cell-based, rat", "settings": "40 μM calpeptin; 2 hrs after 6 hrs stimulation and later; vs cells stimulated without calpeptin", "protocol": "Time-course stimulation of INS-1 cells. INS-1 ceils were incubated for 1 hr. in resting buffer (2.8 mM glucose and 5 mM KCl), then for 6 hrs. in resting or stimulating buffer, with or without 40 μM calpeptin, and then again in resting buffer for up to 24 hrs. Total RNA for real-time PCR was collected at time 0, 2 and 6 hrs. during stimulation and at 2, 6, 12 and 24 hrs. during the following resting period.\nReal-time PCR. Total RNA from INS-1 cells was isolated with Trizol (Invitrogen, Karlsruhe, Germany) according to the manufacturer's protocol. 1 μg of total RNA was used for the reverse transcriptase reaction, with 2 μM specific antisense primers for […] and insulin, as described (31). mRNA expression was measured by quantitative real-time PCR using the Brilliant SYBR Green QPCR (Stratagene, La Jolla, Calif.) with an Mx4000 Multiplex Quantitative Real Time PCR System (Stratagene)."}}, "data": [{"smiles": "CCCC[C@@H](C=O)NC(=O)[C@H](CC(C)C)NC(=O)OCc1ccccc1", "note": "[calpeptin]", "values": [{"measurement": "Cleavage by μ-calpain", "setting": "μ-calpain", "value": "inhibited"}, {"measurement": "decrease of ICA512-TMF upon stimulation", "setting": "ICA512-TMF", "value": "calpeptin-sensitive decrease of ICA512-TMF"}, {"measurement": "insulin mRNA reduction", "setting": "Insulin mRNA", "value": "~40", "unit": "%"}]}]}
